This is an account of results in PMC4910235, “Selenophene and thiophene-core estrogen receptor ligands that inhibit motility and development of parasitic stages of Haemonchus contortus” (Parasites & Vectors, 2016).

The term melting point denotes the temperature, or range, at which the solid turns liquid.

In data set [1] the test system is exsheathed third-stage larvae (xL3s) of H. contortus. In words: xL3 motility assay (whole-organism screen and dose-response). The data set is classed as cell-based, Haemonchus contortus. The conditions noted are these: for activity at 20 µM: Haemonchus contortus, 72 h, percent of motility compared with controls, mean of triplicate ± SEM. As for the experimental part:
The selenophene and thiophene-core ligands (n = 74) (Additional file 1) were screened at a concentration of 20 μM on exsheathed third-stage larvae (xL3s) of H. contortus in 96-well microculture plates (cat. no. 3635; Corning 3650, Life Sciences, Corning, USA) using relevant control compounds (i.e. moxidectin and monepantel), as described previously. In brief, compounds were dissolved to a stock concentration of 10 mM in either dimethyl sulfoxide (DMSO) or methanol (Sigma-Adrich Scientific, St. Louis, USA). These ligands were then individually diluted to the final concentration of 20 μM using Luria Bertani medium (LB) supplemented with 100 IU/ml of penicillin, 100 μg/ml of streptomycin and 2.5 μg/ml of amphotericin (LB*). Compounds were dispensed (in triplicate) into the wells of a 96-well microculture plate using a multichannel pipette. In addition, the negative controls (LB*, LB* + 0.5 % solvent; six wells each), and positive controls (20 μM of monepantel; Zolvix, Novartis Animal Health, Basel, Switzerland and 20 μM of moxidectin; Cydectin, Virbac, Carros, France; triplicate wells) and xL3s (~300/well) were dispensed into wells of the plate using an automated multichannel pipette (Viaflo Assist/II, Integra Biosciences, Zizers, Switzerland). […], a video recording (5 s) was taken of each well of the 96-well microculture plate (containing xL3s) using a greyscale camera (Rolera Bolt CMOS, Qimaging Scientific, Surrey, Canada) and a motorised X-Y axis stage (BioPoint 2, Ludl Electronics Products, Hawthorne, USA). Individual videos were processed to calculate a motility index (MI) using an algorithm described previously. MIs were normalised to the negative and positive controls (to remove plate-to-plate variation) using the program Prism (v.6 GraphPad Software, USA). Z’-scores were calculated to validate the performance of the screening assay; reliable assays achieve Z’-scores of between 0.5 and 1 [28]. A compound was recorded as having an activity if it reduced xL3 motility by ≥ 70 % following incubation for 72 h. […] Compounds that reduced the motility of xL3s were also tested for their ability to inhibit the motility of L4s (same protocol as for xL3s) and/or to affect the development of xL3s to L4s. Following the measurement of L4 motility, larvae were re-incubated for 4 more days and fixed with 1 % iodine (50 μl). Then, L4 development was assessed based on the presence of a well-developed mouth/pharynx using a light microscope and expressed as a percentage of the total number of larvae examined (n = 30).
All assays (to assess xL3 motility, L4 development and L4 motility) were performed in triplicate, three times, on separate days.

Where [2] appears, read: 20 μM, read-out: xL3 Motility Index(%).
The mark [3] stands for this setting: read-out: xL3 Motility Index(%), 20 μM, 72 h.

Structures are written as SMILES. Like-named read-outs stand apart in the source and are kept apart here.

`COc1ccc(-c2cscc2-c2ccc(OC)cc2Cl)c(Cl)c1` [MJ-4] had a melting point of 121 to 125 °C. In addition, the “activity on xL3 motility, in words” value in data set [1] (20 μM) is given as “Poor activity”. The activity at 20 µM in data set [1] (setting [2]) was 81.6 ± 15.7%. Consider `Oc1ccc(-c2ccc(-c3ccc(O)cc3Cl)s2)c(Cl)c1` [MJ-29], for which the activity at 20 µM in data set [1] (setting [2]) was 66.6 ± 2.7%. In the case of `Oc1ccc(-c2ccsc2-c2ccc(O)cc2Cl)c(Cl)c1` [MJ-32], the “activity on xL3 motility, in words” value in data set [1] (20 μM) is recorded as “lost all activity”. In addition, the activity at 20 µM in data set [1] (setting [2]) was found to be 102 ± 3.6%. The matching figures for `Cc1cc(-c2cscc2-c2ccc(O)c(C)c2)ccc1O` [MJ-33]: “poor activity” and 85.5 ± 10.6%. On to `Oc1ccc(-c2cscc2-c2ccc(O)cc2)cc1` [MJ-35], for which, in data set [1] (20 μM), the “activity on xL3 motility, in words” value is “complete loss of activity”. Besides, in data set [1] (setting [2]), the activity at 20 µM was found to be 102 ± 1.5%.

As for `COc1ccc(-c2ccc(-c3ccc(OC)cc3Cl)[se]2)c(Cl)c1` [WZY-1], the “activity on xL3 motility, in words” value in data set [1] (20 μM) is recorded as “limited reduction in motility”. Also, in data set [1] (setting [3]), the activity at 20 µM turned out to be 77.9 ± 6.6%. As for `Oc1ccc(-c2ccc(-c3ccc(O)cc3F)[se]2)c(F)c1` [WZY-3], the activity at 20 µM in data set [1] (setting [3]) was determined as 100 ± 7.7%. Consider `Oc1ccc(-c2cc(Br)c(-c3ccc(O)c(Cl)c3)[se]2)cc1Cl` [WZY-4], for which, in data set [1] (20 μM), the “activity on xL3 motility, in words” value was ““lost” activity”. Besides, the activity at 20 µM in data set [1] (setting [3]) was 123 ± 7.8%. The matching figures for `COc1c(C)cc(-c2cc(Br)c(-c3cc(C)c(OC)c(C)c3)[se]2)cc1C` [WZY-5]: ““lost” activity” and 105 ± 18.6%.
